According to patent US12263170B2, “Systems and methods for treating cancer” (priority 2015, dated 2025):

How the values were obtained:
[1] = system: LKB1 deficient cells (A427, A549, and H2030); test: Viability of KRas mutant NSCLC adenocarcinoma cell lines at various concentrations of AZD1775 (FIGS. 1A, 1B); format: cell-based, human; conditions: LKB1 deficient cells compared with the other KRas mutant NSCLC cell lines
Description: Referring to FIGS. 1A and 1B, the inventors assessed the impact of various concentrations of a G2/M checkpoint inhibitor (i.e., Wee1 kinase inhibitor-AZD1775) on various cell lines with different genetic backgrounds. All of the cell lines tested in FIGS. 1A and 1B where KRas mutant, some of the cell lines were p53 mutants, and some of the cell lines (i.e., A427, A549, and H2030) were LKB1 deficient. All cell lines were adenocarcinoma from patients with NSCLC.

[2] = system: 3381A murine cells (KRas mutant and LKB1 deficient); test: Percent viability with AZD1775, LKB1 rescue vs empty vector pBabe (FIG. 2D); format: cell-based; conditions: 3381A cells with rescue copy of LKB1 compared to control empty vector (pBabe)
Experimental: Referring now to FIG. 2D, a similar experiment was conducted on murine cells that were KRas mutant and LKB1 deficient (3381A cells).

[3] = system: H2030 cell line; test: Percent viability with AZD1775, LKB1 rescue vs KDLKB1 transfection (FIG. 2C); format: cell-based, human; conditions: H2030 cells with rescue copy of LKB1 compared to control KDLKB1 (non-functional kinase)
Experimental: FIG. 2C illustrates, in accordance with embodiments herein, the role of LKB1 in the sensitivity of […] to AZD1775. The H2030 cell line was transfected with either a rescue copy of LKB1 (“LKB1”) or a copy of LKB1 with a non-functional kinase domain (“KDLKB1”) that produces non-functional LKB1.
Next, referring to FIGS. 2A-2C, the LKB1 deficient lines discussed above in reference to FIGS. 1A and 1B were assessed for percent viability in the presence of increasing concentrations of AZD1775. Moreover, as all three cell lines were already LKB1 deficient, the inventors wanted to elucidate the role of LKB1 in the sensitivity of these cells to AZD1775. As such, each cell line with transfected with either a rescue copy of LKB1 (referred to as “LKB1” in these figures) or a copy of LKB1 with a non-functional kinase domain (referred to as KDLKB1 in these figures), which would produce non-functional LKB1.

[4] = system: A549 and H2030 cells; test: Cell signaling molecules after AZD1775 alone and with 2Gy ionizing radiation (FIGS. 4A, 4B); format: cell-based, human; conditions: AZD1775 alone and in combination with 2Gy of ionizing radiation
Description: Next, referring now to FIGS. 4A and 4B, the investigators examined cell signaling molecules in A549 and H2030 cells, including both rescue and control conditions. The investigators treated with AZD1775 alone and in combination with 2Gy of ionizing radiation.

[5] = system: H2030 cells (KRas mutant and LKB1 deficient); test: Viability with AZD1775 combined with cisplatin, pemetrexed or gemcitabine (FIGS. 3A-3C); format: cell-based, human; conditions: AZD1775 alone
Experimental: Similar to the previous experiments, H2030 cells (KRas mutant and LKB1 deficient) were transfected with a rescue copy of LKB1 or a version of LKB1 with a non-functional kinase domain that produces non-functional LKB1 protein. Moreover, these different cells were treated with AZD1775 (also referred to as MK1775) in combination with cisplatin (FIG. 3A), pemetrexed (FIG. 3B), or gemcitabine (FIG. 3C).

[6] = system: A549 cell line; test: Percent viability with AZD1775, LKB1 rescue vs KDLKB1 transfection (FIG. 2B); format: cell-based, human; conditions: A549 cells with rescue copy of LKB1 compared to control KDLKB1 (non-functional kinase)
Experimental: FIG. 2B illustrates, in accordance with embodiments herein, the role of LKB1 in the sensitivity of […] to AZD1775. The A549 cell line was transfected with either a rescue copy of LKB1 (“LKB1”) or a copy of LKB1 with a non-functional kinase domain (“KDLKB1”) that produces non-functional LKB1. […] Next, referring to FIGS. 2A-2C, the LKB1 deficient lines discussed above in reference to FIGS. 1A and 1B were assessed for percent viability in the presence of increasing concentrations of AZD1775. Moreover, as all three cell lines were already LKB1 deficient, the inventors wanted to elucidate the role of LKB1 in the sensitivity of these cells to AZD1775. As such, each cell line with transfected with either a rescue copy of LKB1 (referred to as “LKB1” in these figures) or a copy of LKB1 with a non-functional kinase domain (referred to as KDLKB1 in these figures), which would produce non-functional LKB1.

[7] = system: A427 cell line; test: Percent viability with AZD1775, LKB1 rescue vs KDLKB1 transfection (FIG. 2A); format: cell-based, human; conditions: A427 cells with rescue copy of LKB1 compared to control KDLKB1 (non-functional kinase)
Experimental: FIG. 2A illustrates, in accordance with embodiments herein, the role of LKB1 in the sensitivity of A427 cells to AZD1775. The A427 cell line was transfected with either a rescue copy of LKB1 (“LKB1”) or a copy of LKB1 with a non-functional kinase domain (“KDLKB1”) that produces non-functional LKB1. […] Next, referring to FIGS. 2A-2C, the LKB1 deficient lines discussed above in reference to FIGS. 1A and 1B were assessed for percent viability in the presence of increasing concentrations of AZD1775. Moreover, as all three cell lines were already LKB1 deficient, the inventors wanted to elucidate the role of LKB1 in the sensitivity of these cells to AZD1775. As such, each cell line with transfected with either a rescue copy of LKB1 (referred to as “LKB1” in these figures) or a copy of LKB1 with a non-functional kinase domain (referred to as KDLKB1 in these figures), which would produce non-functional LKB1.

[8] = system: mutant kras/lkb 1 deficient nsclc tumors in transgenic mice; test: Survival of adenoCre-infected KRasG12D/LKB1 FL/FL/luci mice (FIG. 9); format: in vivo; conditions: Cisplatin once per week 2.5 mg/kg, with or without AZD1775 30 mg/kg three times per week; treated for four weeks; log-rank analysis
Experimental: Referring to FIG. 9, the investigators transiently infected 6-8 week old KRas^G12D/LKB 1^FL/FL/luci with 5×10^6 P.F.U. of adenoCre via intratracheal inhalation. Mice received scans using the Xenogen IVIS at 8 weeks to identify disease. Mice were then randomized to Cisplatin (once per week, 2.5 mg/kg) or AZD1775 (30 mg/kg, three times per week)+cisplatin and treated for four weeks. Survival was calculated via log-rank analysis. It was observed that the median survival rate of mice receiving Cisplatin was 12 weeks, whereas the median survival rate of mice receiving Cisplatin+AZD1775 was 14 weeks. For this set of experiments, the hazard ratio was 0.3972, while the confidence interval was 0.0605-0.6086.

SMILES	EC50 values ([1]; FIG. 1B)	viability ([1]; increasing concentrations of AZD1775, FIG. 1A)	sensitivity to AZD1775 as measured by percent viability [2]	sensitivity to AZD1775 as measured by percent viability [3]	phosphorylated AMPK ([4]; LKB1 (rescue) cells)	phosphorylated H2AX (indicator of DNA damage) ([4]; LKB1-deficient cells)	cell viability [5]	sensitivity to AZD1775 as measured by percent viability [6]	sensitivity to AZD1775 as measured by percent viability [7]	median survival rate [8] [weeks]
C=CCn1c(=O)c2cnc(Nc3ccc(N4CCN(C)CC4)cc3)nc2n1-c1cccc(C(C)(C)O)n1 [AZD1775]	lowest EC50 values	greatest reduced viability	less sensitive	less sensitive	increased amounts of phosphorylated AMPK	increased amount of phosphorylated H2AX	negative impact on cell viability	less sensitive	less sensitive	–
N.N.[Cl][Pt][Cl] [Cisplatin]	–	–	–	–	–	–	–	–	–	12
